Reference: PubChem BioAssay AID2060888 (Molecular Pharmacology Branch, DTP, NCI, 2025)

Tested on: 695427-040-R-J1-PDC complex spheroid viability
Assay: Anticancer human tumor 695427-040-R-J1-PDC patient-derived colon adenocarcinoma cell line growth inhibition [RAS]
Details: for IC50: curve of first compound; for viability, T/C: stronger effect = lower value
How it was run: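 Multi-cell-type spheroids: tumor cells plus HUVEC endothelial cells and mesenchymal stem cells. RAS-pathway inhibitors were combined with targeted agents, each dosed in half-log steps down from clinical Cmax, or from 10 microM when Cmax was unknown.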

[1] = second compound 0.0316 µM, first compound 0.0316 µM
[2] = second compound 0.0316 µM, first compound 0.1 µM
[3] = second compound 0.0316 µM, first compound 0.316 µM
[4] = second compound 0.0316 µM, first compound 1 µM
[5] = second compound 0.1 µM, first compound 0.0316 µM
[6] = second compound 0.1 µM, first compound 0.1 µM
[7] = second compound 0.1 µM, first compound 0.316 µM
[8] = second compound 0.1 µM, first compound 1 µM
[9] = second compound 0.316 µM, first compound 0.0316 µM
[10] = second compound 0.316 µM, first compound 0.1 µM
[11] = second compound 0.316 µM, first compound 0.316 µM
[12] = second compound 0.316 µM, first compound 1 µM
[13] = second compound 1 µM, first compound 0.0316 µM
[14] = second compound 1 µM, first compound 0.1 µM
[15] = second compound 1 µM, first compound 0.316 µM
[16] = second compound 1 µM, first compound 1 µM
[17] = second compound 3.16 µM, first compound 0.0316 µM
[18] = second compound 3.16 µM, first compound 0.1 µM
[19] = second compound 3.16 µM, first compound 0.316 µM
[20] = second compound 3.16 µM, first compound 1 µM
[21] = second compound 10 µM, first compound 0.0316 µM
[22] = second compound 10 µM, first compound 0.1 µM
[23] = second compound 10 µM, first compound 0.316 µM
[24] = second compound 10 µM, first compound 1 µM
[25] = second compound 0.0316 µM, first compound 0.000949 µM
[26] = second compound 0.0316 µM, first compound 0.003 µM
[27] = second compound 0.0316 µM, first compound 0.00949 µM
[28] = second compound 0.0316 µM, first compound 0.03 µM
[29] = second compound 0.0316 µM, first compound 0.0949 µM
[30] = second compound 0.0316 µM, first compound 0.3 µM
[31] = second compound 0.1 µM, first compound 0.000949 µM
[32] = second compound 0.1 µM, first compound 0.003 µM
[33] = second compound 0.1 µM, first compound 0.00949 µM
[34] = second compound 0.1 µM, first compound 0.03 µM
[35] = second compound 0.1 µM, first compound 0.0949 µM
[36] = second compound 0.1 µM, first compound 0.3 µM
[37] = second compound 0.316 µM, first compound 0.000949 µM
[38] = second compound 0.316 µM, first compound 0.003 µM
[39] = second compound 0.316 µM, first compound 0.00949 µM
[40] = second compound 0.316 µM, first compound 0.03 µM
[41] = second compound 0.316 µM, first compound 0.0949 µM
[42] = second compound 0.316 µM, first compound 0.3 µM
[43] = second compound 1 µM, first compound 0.000949 µM
[44] = second compound 1 µM, first compound 0.003 µM
[45] = second compound 1 µM, first compound 0.00949 µM
[46] = second compound 1 µM, first compound 0.03 µM
[47] = second compound 1 µM, first compound 0.0949 µM
[48] = second compound 1 µM, first compound 0.3 µM
[49] = second compound 3.16 µM, first compound 0.000949 µM
[50] = second compound 3.16 µM, first compound 0.003 µM
[51] = second compound 3.16 µM, first compound 0.00949 µM
[52] = second compound 3.16 µM, first compound 0.03 µM
[53] = second compound 3.16 µM, first compound 0.0949 µM
[54] = second compound 3.16 µM, first compound 0.3 µM
[55] = second compound 10 µM, first compound 0.000949 µM
[56] = second compound 10 µM, first compound 0.003 µM
[57] = second compound 10 µM, first compound 0.00949 µM
[58] = second compound 10 µM, first compound 0.03 µM
[59] = second compound 10 µM, first compound 0.0949 µM
[60] = second compound 10 µM, first compound 0.3 µM
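Note: viability read after seven days of drug exposure.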
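Throughout, for viability, T/C: 100% = DMSO vehicle control viability.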

C=CC(=O)N1CCN(c2nc(OCC3CCCN3C)nc3c(F)c(-c4nc(N)cc(C)c4C(F)(F)F)c(Cl)cc23)C(C)C1 (stereo not drawn) + C#Cc1c(F)ccc2cc(O)cc(-c3ncc4c(N5CC6CCC(C5)N6)nc(OCC56CCCN5CC(F)C6)nc4c3F)c12
IC50 (second compound 0.0316 µM): > 1000 nM | IC50 (second compound 0.1 µM): > 1000 nM | IC50 (second compound 0.316 µM): > 1000 nM | IC50 (second compound 1 µM): > 1000 nM | IC50 (second compound 3.16 µM): 498 nM | IC50 (second compound 10 µM): < 3.16 nM | viability, T/C (second compound 0.0316 µM, first compound 0.00316 µM): 88.4% | viability, T/C (second compound 0.0316 µM, first compound 0.01 µM): 104% | viability, T/C [1]: 96.7% | viability, T/C [2]: 95% | viability, T/C [3]: 98.5% | viability, T/C [4]: 92.9% | viability, T/C (second compound 0.1 µM, first compound 0.00316 µM): 98.4% | viability, T/C (second compound 0.1 µM, first compound 0.01 µM): 89.5% | viability, T/C [5]: 98.5% | viability, T/C [6]: 85.5% | viability, T/C [7]: 94.7% | viability, T/C [8]: 83.3% | viability, T/C (second compound 0.316 µM, first compound 0.00316 µM): 91.6% | viability, T/C (second compound 0.316 µM, first compound 0.01 µM): 88% | viability, T/C [9]: 95.5% | viability, T/C [10]: 83.1% | viability, T/C [11]: 89% | viability, T/C [12]: 67% | viability, T/C (second compound 1 µM, first compound 0.00316 µM): 76.2% | viability, T/C (second compound 1 µM, first compound 0.01 µM): 78.4% | viability, T/C [13]: 67.2% | viability, T/C [14]: 67.3% | viability, T/C [15]: 60.4% | viability, T/C [16]: 58.4% | viability, T/C (second compound 3.16 µM, first compound 0.00316 µM): 56.3% | viability, T/C (second compound 3.16 µM, first compound 0.01 µM): 53% | viability, T/C [17]: 62.9% | viability, T/C [18]: 58.7% | viability, T/C [19]: 52.6% | viability, T/C [20]: 41.5% | viability, T/C (second compound 10 µM, first compound 0.00316 µM): 39.6% | viability, T/C (second compound 10 µM, first compound 0.01 µM): 39.8% | viability, T/C [21]: 37.8% | viability, T/C [22]: 45.8% | viability, T/C [23]: 38.6% | viability, T/C [24]: 42.8%

CC(=O)OC12COC1CC(O)C1(C)C(=O)C(O)C3=C(C)C(OC(=O)C(O)C(NC(=O)OC(C)(C)C)c4ccccc4)CC(O)(C(OC(=O)c4ccccc4)C21)C3(C)C (stereo not drawn) + C#Cc1c(F)ccc2cc(O)cc(-c3ncc4c(N5CC6CCC(C5)N6)nc(OCC56CCCN5CC(F)C6)nc4c3F)c12
IC50 (second compound 0.0316 µM): > 10000 nM | IC50 (second compound 0.1 µM): > 10000 nM | IC50 (second compound 0.316 µM): > 10000 nM | IC50 (second compound 1 µM): > 10000 nM | IC50 (second compound 3.16 µM): < 31.6 nM | IC50 (second compound 10 µM): < 31.6 nM | viability, T/C [1]: 67.3% | viability, T/C [2]: 67% | viability, T/C [3]: 69.9% | viability, T/C [4]: 80.3% | viability, T/C (second compound 0.0316 µM, first compound 3.16 µM): 85.8% | viability, T/C (second compound 0.0316 µM, first compound 10 µM): 90.5% | viability, T/C [5]: 66.9% | viability, T/C [6]: 70.5% | viability, T/C [7]: 66% | viability, T/C [8]: 80% | viability, T/C (second compound 0.1 µM, first compound 3.16 µM): 89.1% | viability, T/C (second compound 0.1 µM, first compound 10 µM): 87.7% | viability, T/C [9]: 70.7% | viability, T/C [10]: 68% | viability, T/C [11]: 64.8% | viability, T/C [12]: 72.6% | viability, T/C (second compound 0.316 µM, first compound 3.16 µM): 76.8% | viability, T/C (second compound 0.316 µM, first compound 10 µM): 81.8% | viability, T/C [13]: 59.5% | viability, T/C [14]: 59.1% | viability, T/C [15]: 59% | viability, T/C [16]: 58.8% | viability, T/C (second compound 1 µM, first compound 3.16 µM): 67.3% | viability, T/C (second compound 1 µM, first compound 10 µM): 61% | viability, T/C [17]: 47.6% | viability, T/C [18]: 44.2% | viability, T/C [19]: 42.4% | viability, T/C [20]: 50.4% | viability, T/C (second compound 3.16 µM, first compound 3.16 µM): 49.7% | viability, T/C (second compound 3.16 µM, first compound 10 µM): 45.3% | viability, T/C [21]: 32.3% | viability, T/C [22]: 30.4% | viability, T/C [23]: 25.2% | viability, T/C [24]: 32% | viability, T/C (second compound 10 µM, first compound 3.16 µM): 29.6% | viability, T/C (second compound 10 µM, first compound 10 µM): 30.1%

CC1(C)CCC(Nc2ncc(C(F)(F)F)c(-c3c[nH]c4c(P(C)(C)=O)c(C#N)ccc34)n2)CN1 (stereo not drawn) + C#Cc1c(F)ccc2cc(O)cc(-c3ncc4c(N5CC6CCC(C5)N6)nc(OCC56CCCN5CC(F)C6)nc4c3F)c12
IC50 (second compound 0.0316 µM): > 300 nM | IC50 (second compound 0.1 µM): > 300 nM | IC50 (second compound 0.316 µM): > 300 nM | IC50 (second compound 1 µM): > 300 nM | IC50 (second compound 3.16 µM): 3.19 nM | IC50 (second compound 10 µM): < 0.949 nM | viability, T/C [25]: 104% | viability, T/C [26]: 91.6% | viability, T/C [27]: 84.4% | viability, T/C [28]: 79% | viability, T/C [29]: 84.5% | viability, T/C [30]: 80.3% | viability, T/C [31]: 101% | viability, T/C [32]: 87.8% | viability, T/C [33]: 84.3% | viability, T/C [34]: 88.6% | viability, T/C [35]: 79% | viability, T/C [36]: 73.2% | viability, T/C [37]: 87.2% | viability, T/C [38]: 89.7% | viability, T/C [39]: 99.2% | viability, T/C [40]: 74% | viability, T/C [41]: 76.8% | viability, T/C [42]: 70.4% | viability, T/C [43]: 67.7% | viability, T/C [44]: 64.5% | viability, T/C [45]: 59.9% | viability, T/C [46]: 62.5% | viability, T/C [47]: 67.7% | viability, T/C [48]: 57.8% | viability, T/C [49]: 66.8% | viability, T/C [50]: 49.2% | viability, T/C [51]: 51.9% | viability, T/C [52]: 48.6% | viability, T/C [53]: 48% | viability, T/C [54]: 43.5% | viability, T/C [55]: 37.4% | viability, T/C [56]: 39.2% | viability, T/C [57]: 43.2% | viability, T/C [58]: 35.3% | viability, T/C [59]: 39.3% | viability, T/C [60]: 34.3%

CCc1c2c(nc3ccc(O)cc13)-c1cc3c(c(=O)n1C2)COC(=O)[C@]3(O)CC + C#Cc1c(F)ccc2cc(O)cc(-c3ncc4c(N5CC6CCC(C5)N6)nc(OCC56CCCN5CC(F)C6)nc4c3F)c12
IC50 (second compound 0.0316 µM): 119 nM | IC50 (second compound 0.1 µM): 122 nM | IC50 (second compound 0.316 µM): 93.3 nM | IC50 (second compound 1 µM): 59.7 nM | IC50 (second compound 3.16 µM): 10.7 nM | IC50 (second compound 10 µM): < 0.949 nM | viability, T/C [25]: 89.1% | viability, T/C [26]: 89.8% | viability, T/C [27]: 77.9% | viability, T/C [28]: 76% | viability, T/C [29]: 53.5% | viability, T/C [30]: 30.4% | viability, T/C [31]: 96.1% | viability, T/C [32]: 86.2% | viability, T/C [33]: 78.8% | viability, T/C [34]: 72.2% | viability, T/C [35]: 58.7% | viability, T/C [36]: 28.6% | viability, T/C [37]: 82% | viability, T/C [38]: 79.9% | viability, T/C [39]: 70.7% | viability, T/C [40]: 67.1% | viability, T/C [41]: 49.4% | viability, T/C [42]: 25.7% | viability, T/C [43]: 73.8% | viability, T/C [44]: 66.1% | viability, T/C [45]: 60.1% | viability, T/C [46]: 59.8% | viability, T/C [47]: 45.8% | viability, T/C [48]: 27.2% | viability, T/C [49]: 54.3% | viability, T/C [50]: 52% | viability, T/C [51]: 48.7% | viability, T/C [52]: 46% | viability, T/C [53]: 40.1% | viability, T/C [54]: 24.9% | viability, T/C [55]: 37.4% | viability, T/C [56]: 36.5% | viability, T/C [57]: 36.8% | viability, T/C [58]: 28.1% | viability, T/C [59]: 26.2% | viability, T/C [60]: 17.2%
